Reference: PMC7178511, “Antimicrobial Activity and DNA/BSA Binding Affinity of Polynuclear Silver(I) Complexes with 1,2-Bis(4-pyridyl)ethane/ethene as Bridging Ligands” (Bioinorganic Chemistry and Applications, 2020)
Values after ≈ are worked out from the molar mass of the structure shown. Marks after values point to notes of the source that are not given here.

Assays:
[1] = test system: Salmonella enteritidis ATCC 13075; experiment: Broth microdilution MIC, S. enteritidis; format: cell-based; conditions: 24 h
Protocol: (§1) Minimal inhibitory concentration (MIC) values against Pseudomonas aeruginosa PA01, Staphylococcus aureus ATCC 43300, Salmonella enteritidis ATCC 13075, Salmonella pullorum ATCC 13036, Escherichia coli NCTC 9001, Listeria monocytogenes NCTC 11994, and Enterococcus faecalis ATCC 29212 were determined in Luria-Bertani broth (10.0 g/L tryptone, 10.0 g/L NaCl, 5.0 g/L yeast extract, pH 7.2) in accordance with the standard broth microdilution assay for bacteria that grow aerobically, as recommended by the CLSI (Clinical and Laboratory Standards Institute, Methods for Dilution Antimicrobial Susceptibility Tests for Bacteria That Grow Aerobically; Approved Standard—Tenth Edition M07-A10. CLSI). The highest tested concentration was 500 μg/mL, and the inocula were 1^·10^6 cfu/mL.

[2] = test system: Listeria monocytogenes NCTC 11994; experiment: Broth microdilution MIC, L. monocytogenes; format: cell-based
Protocol: as §1

[3] = test system: Staphylococcus aureus ATCC 43300; experiment: Broth microdilution MIC, S. aureus; format: cell-based
Protocol: as §1

[4] = test system: C. albicans expressing red fluorescent protein; experiment: C. albicans filamentation study; format: cell-based, Candida albicans; conditions: MIC80 of complex, 6 h, 37°C, RPMI 1640 with 10% FBS
Protocol: The suspension of C. albicans expressing red fluorescent protein was prepared in RPMI 1640 medium with 10% (v/v) fetal bovine serum (FBS) to induce hyphae formation. The suspension was then treated with MIC80 concentrations of 1–3 at 37°C shaking. Cells treated with DMSO served as the control. After 6 h of incubation, the results were observed by a fluorescence microscope (Olympus BX51, Applied Imaging Corp., San Jose, CA, United States) under 20× magnification.

[5] = test system: C. parapsilosis ATCC 22019; experiment: Broth microdilution MIC, C. parapsilosis; format: cell-based, Candida parapsilosis
Protocol: (§2) Stock solutions of bpa, bpe, and silver(I) complexes 1–3 were prepared fresh in DMSO (50 mg/mL) and kept at 4°C prior to use. Susceptibility testing of Candida spp. (C. albicans ATCC 10231, C. krusei ATCC 6258, C. parapsilosis ATCC 22019, and C. glabrata ATCC 2001) was performed according to CLSI broth microdilution guidelines (Clinical and Laboratory Standards Institute, Reference Method for Broth Dilution Antifungal Susceptibility Testing of Yeasts—Third Edition: Approved Standard M27-A3; Clinical and Laboratory Standards Institute, Reference Method for Broth Dilution Antifungal Susceptibility Testing of Yeasts: Fourth Informational Supplement M27-S4), in RPMI 1640 medium (Roswell Park Memorial Institute medium) containing 2% glucose (w/v). The highest tested concentration was 500 μg/mL, and the inocula were 1^·\10^5 colony forming units (cfu)/mL.

[6] = test system: Salmonella pullorum ATCC 13036; experiment: Broth microdilution MIC, S. pullorum; format: cell-based; conditions: 24 h
Protocol: as §1

C. albicans ATCC 10231 = experiment: Broth microdilution MIC, C. albicans; format: cell-based, Candida albicans
Protocol: as §2

[7] = test system: Enterococcus faecalis ATCC 29212; experiment: Broth microdilution MIC, E. faecalis; format: cell-based
Protocol: as §1

[8] = test system: Pseudomonas aeruginosa PAO1; experiment: Broth microdilution MIC, P. aeruginosa; format: cell-based
Protocol: as §1

[9] = test system: genomic DNA isolated from C. albicans ATCC 10231; experiment: DNA interaction assay using gel electrophoresis; format: binding, Candida albicans; conditions: 40, 100 and 400 μM complex, 2 h, 30°C, Tris buffer pH 8.5
Protocol: DNA interaction assay using gel electrophoresis has also been conducted according to the previously published procedure using high molecular weight (HMW) genomic DNA isolated from C. albicans ATCC 10231. Briefly, DNA (50 ng/μL final concentration) was incubated with 40, 100, and 400 μM final concentration of silver(I) complexes 1–3 in Tris buffer, pH 8.5 in 50 μL reaction volume. After 2 h incubation at 30°C, 10 μL aliquots were taken, mixed with loading dye, and loaded on agarose gel. Control contained an appropriate volume of DMSO. DNA samples were run, 500 ng per lane, on 0.8% agarose gel with ethidium bromide (EthBr) against O'GeneRuler™ 1 kb Plus DNA Ladder (Thermo Scientific™) at 60 V for 1 h. Gels were visualized and analyzed using the Gel Doc EZ system (Bio-Rad, Life Sciences, Hercules, USA), equipped with the Image Lab™ Software.

calf thymus DNA (ctDNA) = experiment: Competitive EthBr-DNA fluorescence binding experiment; conditions: Fluorescent titration, pH 7.4
Protocol: The competitive DNA-silver(I) complex binding experiments were carried out in the buffer (pH 7.4) by maintaining [DNA]/[EthBr] = 5, while increasing the concentration of the complexes 1–3. Each sample solution was scanned in the wavelength range 525–800 nm with an excitation wavelength of 520 nm. The Stern-Volmer constants (Ksv), which represent a measure of the binding propensity of the complexes to DNA, were calculated using the following equation [29]:(2) F0/F=1+Kqτ0complex=1+Ksvcomplex, where F0 and F are the fluorescence intensities in the absence and presence of the complexes, respectively. Kq stands for bimolecular quenching constant and τ0 (10^−8 s) is the lifetime of the fluorophore in the absence of the quencher. The binding constants (KA) and apparent binding sites (n) can be calculated by using the following equation [28]:(3) logF0−F/F=log KA+n logcomplex, where KA stands for the binding constant of the silver(I) complex with ctDNA and n stands for the apparent number of binding sites.

[10] = test system: human lung fibroblast cell line MRC-5; experiment: MTT assay on a human fibroblast cell line; format: cell-based; conditions: MRC-5, MTT, 48 h
Protocol: (§3) Antiproliferative activity was tested by 3-(4,5-dimethylthiazol-2-yl)-2,5-diphenyltetrazolium bromide (MTT) assay on a human lung fibroblast cell line (MRC-5; ATCC collection). Pregrown (24 h) cell monolayers were incubated in the media containing the tested compounds at concentrations ranging from 5 to 500 μg/mL and the cell viability was measured after 48 h. RPMI 1640 medium supplemented with 100 μg/mL streptomycin, 100 U/mL penicillin, and 10% (v/v) FBS (all from Sigma, Munich, Germany) was used for the cultivation of MRC-5 cell line. Cells were maintained as a monolayer (1^·10^4 cells per well) in RPMI 1640 and grown in a humidified atmosphere of 95% air and 5% CO2 at 37°C. The extent of MTT reduction was measured spectrophotometrically at 540 nm using Tecan Infinite 200 Pro multiplate reader (Tecan Group Ltd, Männedorf, Switzerland), and the cell survival was expressed as a percentage of the control (untreated cells). Cytotoxicity was expressed as the concentration of the compound inhibiting cell growth by 50% (IC50).

[11] = target: T1, bovine serum albumin (BSA) (Bos taurus, UniProt P02769); experiment: BSA tryptophan fluorescence quenching; format: binding; conditions: BSA 13.1 μM, Tris buffer pH 7.4
T1 construct: purchased Sigma-Aldrich
T1 sequence (P02769 25-607): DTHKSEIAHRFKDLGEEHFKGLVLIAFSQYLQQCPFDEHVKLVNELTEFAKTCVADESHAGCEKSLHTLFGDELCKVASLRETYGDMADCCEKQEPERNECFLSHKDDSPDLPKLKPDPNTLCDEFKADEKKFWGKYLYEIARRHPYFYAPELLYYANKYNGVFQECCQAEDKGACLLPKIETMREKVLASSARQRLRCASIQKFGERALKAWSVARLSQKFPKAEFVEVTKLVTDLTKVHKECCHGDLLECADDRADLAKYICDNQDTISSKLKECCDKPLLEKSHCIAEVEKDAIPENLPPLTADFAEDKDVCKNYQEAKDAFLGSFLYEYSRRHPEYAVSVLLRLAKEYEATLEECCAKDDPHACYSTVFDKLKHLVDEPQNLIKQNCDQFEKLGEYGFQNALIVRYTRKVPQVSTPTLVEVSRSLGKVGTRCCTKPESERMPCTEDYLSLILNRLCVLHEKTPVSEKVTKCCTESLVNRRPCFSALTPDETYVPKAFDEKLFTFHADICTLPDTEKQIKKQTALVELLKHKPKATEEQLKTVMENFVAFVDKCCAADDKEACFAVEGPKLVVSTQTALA
Protocol: The protein binding study was performed by tryptophan fluorescence quenching experiments using BSA (13.1 μM) in Tris buffer solution (pH 7.4). The quenching of the emission intensity of tryptophan residues of BSA at 352 nm was monitored using the increasing concentration of the complexes 1–3 (up to 464.9 μM). Fluorescence spectra were recorded in the range 280–500 nm with an excitation wavelength of 275 nm. The corresponding binding constants of the complexes (KA) and apparent binding sites (n) were calculated as it was previously explained.

[12] = test system: Escherichia coli NCTC 9001; experiment: Broth microdilution MIC, E. coli; format: cell-based
Protocol: as §1

C. glabrata ATCC 2001 = experiment: Broth microdilution MIC, C. glabrata; format: cell-based, Candida glabrata
Protocol: as §2

C. krusei ATCC 6258 = experiment: Broth microdilution MIC, C. krusei; format: cell-based, Candida krusei
Protocol: as §2

C. albicans = test system: C. albicans; set-up: method as in PMID 30952084; conditions: at MIC doses; cited from earlier work
[13] = test system: C. albicans infected zebrafish; set-up: method as in PMID 30952084; conditions: at MIC doses; cited from earlier work
[14] = test system: investigated bacterial strains; experiment: Broth microdilution MIC, panel of bacterial strains; format: cell-based
Protocol: as §1

[15] = MTT assay on a human fibroblast cell line; format: cell-based; conditions: human, MRC-5, MTT, read-out: IC50 (cytotoxic effect on MRC-5 cells)
Protocol: as §3

[16] = S. enteritidis ATCC 13075, Luria-Bertani broth, 37°C
[17] = L. monocytogenes NCTC 11994, Luria-Bertani broth, 24 h, 37°C
[18] = S. aureus ATCC 43300, Luria-Bertani broth, 24 h, 37°C
[19] = C. parapsilosis ATCC 22019, RPMI 1640 with 2% glucose
[20] = S. pullorum ATCC 13036, Luria-Bertani broth, 37°C
[21] = C. albicans ATCC 10231, RPMI 1640 with 2% glucose
[22] = E. faecalis ATCC 29212, Luria-Bertani broth, 24 h, 37°C
[23] = P. aeruginosa PAO1, Luria-Bertani broth, 24 h, 37°C
[24] = E. coli NCTC 9001, Luria-Bertani broth, 24 h, 37°C
[25] = C. glabrata ATCC 2001, RPMI 1640 with 2% glucose
[26] = C. krusei ATCC 6258, RPMI 1640 with 2% glucose

| SMILES | MIC [1, 16] [µg/mL] | MIC [2, 17] [µg/mL] | MIC [3, 18] [µg/mL] | effect on C. albicans hyphae formation [4] | MIC [5, 19] [µg/mL] | MIC [6, 20] [µg/mL] | MIC (C. albicans ATCC 10231; [21]) [µg/mL] | MIC [7, 22] [µg/mL] | MIC [8, 23] [µg/mL] | interaction with C. albicans genomic DNA (emission of EthBr-DNA system on gel) [9] | Hypochromism (calf thymus DNA (ctDNA)) [%] | IC50 (cytotoxic effect on MRC-5 cells) [10] | Tryptophan fluorescence quenching (emission decrease at 352 nm) [11] [%] | n (number of binding sites per albumin) [11] | MIC [12, 24] | MIC (C. glabrata ATCC 2001; [25]) [µg/mL] | MIC (C. krusei ATCC 6258; [26]) [µg/mL] | effect on C. albicans filamentation (C. albicans) | outcome of infected zebrafish [13] | other results |
| --- | --- | --- | --- | --- | --- | --- | --- | --- | --- | --- | --- | --- | --- | --- | --- | --- | --- | --- | --- | --- |
| O.O=S(=O)([O-])C(F)(F)F.[Ag+].c1cc(CCc2ccncc2)ccn1.c1cc(CCc2ccncc2)ccn1 [Complex 2, {[Ag(bpa)2]CF3SO3^.H2O}n] | 50 | 50 | 200 | decreased number and length of hyphae | 2.5 | 12.5 | 6.25 | 25 | 200 | Slightly higher interaction | 12.0 | 30 µg/mL | 76.10 | 1.10 | 12.5 µg/mL | 12.5 | 3.1 | – | – | – |
| C(=C\c1ccncc1)/c1ccncc1.O=S(=O)([O-])C(F)(F)F.[Ag+] [Complex 3, {[Ag(bpe)]CF3SO3}n] | 200 | 25 | 100 | did not significantly affect the hyphae formation | 3.1 | 250 | 25 | 25 | 25 | – | 3.8 | 40 µg/mL | 81.13 | 1.30 | 12.5 µg/mL | 25 | 6.25 | – | – | K A (calf thymus DNA (ctDNA)): 59.16 M⁻¹ |
| O=C([O-])C(F)(F)F.[Ag+].c1cnc2ccc3ncccc3c2c1 [[Ag(CF3COO)(4,7-phen)]n] | – | – | – | – | – | – | – | – | – | – | – | – | – | – | – | – | – | totally prevented C. albicans filamentation | rescued the infected zebrafish of the lethal infection outcome | – |
| c1cc(CCc2ccncc2)ccn1 [bpa, 1,2-Bis(4-pyridyl)ethane] | – | – | – | – | – | – | – | – | – | – | – | – | – | – | – | – | – | – | – | MIC ([1]; Salmonella enterica): > 500 µg/mL; MIC ([2]; Listeria monocytogenes, NCTC11994, 24 h): > 500 µg/mL; MIC ([3]; Staphylococcus aureus, ATCC43300, 24 h): > 500 µg/mL; MIC / antibacterial activity [14]: not significant; MIC ([5]; Lodderomyces parapsilosis, ATCC22019): 250 µg/mL (≈ 1360 µM); MIC ([6]; Salmonella enterica): > 500 µg/mL; MIC (C. albicans ATCC 10231; Candida albicans, ATCC10231): 125 µg/mL (≈ 678 µM); MIC ([7]; Enterococcus faecalis, ATCC29212, 24 h): > 500 µg/mL; MIC ([8]; Pseudomonas aeruginosa, PAO1, 24 h): > 500 µg/mL; IC50 at 48 h [15]: 300 µg/mL (≈ 1630 µM); MIC ([12]; Escherichia coli, NCTC9001, 24 h): > 500 µg/mL; MIC (C. glabrata ATCC 2001; Nakaseomyces glabratus, ATCC2001): > 500 µg/mL; MIC (C. krusei ATCC 6258; Pichia kudriavzevii, ATCC6258): 125 µg/mL (≈ 678 µM) |
| O=[N+]([O-])[O-].[Ag+].c1cnc2ccc3ncccc3c2c1 [[Ag(NO3)(4,7-phen)]n] | – | – | – | – | – | – | – | – | – | – | – | – | – | – | – | – | – | totally prevented C. albicans filamentation | rescued the infected zebrafish of the lethal infection outcome | – |
| O=[N+]([O-])[O-].[Ag+].c1cc(CCc2ccncc2)ccn1 [Complex 1, {[Ag(bpa)]NO3}n] | 50 | 50 | 50 | did not significantly affect the hyphae formation | 3.1 | 25 | 6.25 | 12.5 | 50 | Slightly higher interaction | 11.3 | 40^b μg/mL | 65.65 | 1.14 | 12.5^a μg/mL | 6.25 | 6.25 | – | – | effect on C. albicans growth under filamentation conditions [4]: reduced the growth |
